Laboratory results published in ChEMBL document CHEMBL5291721, “A preclinical secondary pharmacology resource illuminates target-adverse drug reaction associations of marketed drugs” (Nat Commun, 2023).

Tests used:
[1] = target: 5-hydroxytryptamine receptor 2A (Homo sapiens, UniProt P28223); type: functional, cell-based
Mu-type opioid receptor [2] = target: T1, Mu-type opioid receptor (Homo sapiens, UniProt P35372)
[3] = target: T2, Alpha-2B adrenergic receptor (Homo sapiens, UniProt P18089)
T2 sequence (P18089 whole entry): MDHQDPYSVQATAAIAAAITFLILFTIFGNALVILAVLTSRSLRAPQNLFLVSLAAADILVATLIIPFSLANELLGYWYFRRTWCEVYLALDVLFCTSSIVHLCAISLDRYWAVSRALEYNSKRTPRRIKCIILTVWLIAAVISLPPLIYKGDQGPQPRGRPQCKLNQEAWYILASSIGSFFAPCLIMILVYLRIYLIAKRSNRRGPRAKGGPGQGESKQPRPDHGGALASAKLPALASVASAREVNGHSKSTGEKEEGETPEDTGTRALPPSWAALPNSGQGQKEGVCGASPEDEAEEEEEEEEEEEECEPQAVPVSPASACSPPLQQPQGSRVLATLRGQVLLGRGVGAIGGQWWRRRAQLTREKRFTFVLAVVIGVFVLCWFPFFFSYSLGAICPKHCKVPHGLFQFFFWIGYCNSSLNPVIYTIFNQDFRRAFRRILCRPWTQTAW

[4] = target: T3, Alpha-1A adrenergic receptor (Homo sapiens, UniProt P35348); type: functional, cell-based
T3 sequence (P35348 whole entry): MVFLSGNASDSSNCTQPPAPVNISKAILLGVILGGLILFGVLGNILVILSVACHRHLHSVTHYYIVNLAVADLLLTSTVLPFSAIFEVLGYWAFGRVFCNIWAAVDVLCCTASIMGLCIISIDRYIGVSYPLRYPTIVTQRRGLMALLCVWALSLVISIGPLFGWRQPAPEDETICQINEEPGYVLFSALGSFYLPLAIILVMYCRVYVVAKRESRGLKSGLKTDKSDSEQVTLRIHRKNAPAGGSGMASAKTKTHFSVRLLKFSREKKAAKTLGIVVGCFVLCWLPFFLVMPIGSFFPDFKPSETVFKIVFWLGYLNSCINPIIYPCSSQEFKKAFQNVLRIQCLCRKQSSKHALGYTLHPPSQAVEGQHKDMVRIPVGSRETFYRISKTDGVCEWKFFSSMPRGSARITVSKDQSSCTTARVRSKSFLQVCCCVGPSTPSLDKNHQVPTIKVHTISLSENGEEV

[5] = target: T4, Muscarinic acetylcholine receptor M2 (Homo sapiens, UniProt P08172); type: functional, cell-based
T4 sequence (P08172 whole entry): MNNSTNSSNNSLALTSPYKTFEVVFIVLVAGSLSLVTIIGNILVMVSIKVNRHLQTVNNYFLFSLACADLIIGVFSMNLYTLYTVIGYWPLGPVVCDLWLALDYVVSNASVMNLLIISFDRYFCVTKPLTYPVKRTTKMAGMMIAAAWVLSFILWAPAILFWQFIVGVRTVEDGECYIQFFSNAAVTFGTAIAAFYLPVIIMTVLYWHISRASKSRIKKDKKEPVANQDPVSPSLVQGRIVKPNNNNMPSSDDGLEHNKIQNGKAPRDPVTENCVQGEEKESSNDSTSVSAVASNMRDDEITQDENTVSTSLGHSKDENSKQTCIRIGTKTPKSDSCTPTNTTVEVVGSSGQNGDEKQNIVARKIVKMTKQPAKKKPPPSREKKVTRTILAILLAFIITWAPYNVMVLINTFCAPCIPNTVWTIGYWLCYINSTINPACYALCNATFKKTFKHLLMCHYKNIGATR

[6] = target: Kappa-type opioid receptor (Homo sapiens, UniProt P41145)
Chain of Kappa-type opioid receptor (P41145 whole entry): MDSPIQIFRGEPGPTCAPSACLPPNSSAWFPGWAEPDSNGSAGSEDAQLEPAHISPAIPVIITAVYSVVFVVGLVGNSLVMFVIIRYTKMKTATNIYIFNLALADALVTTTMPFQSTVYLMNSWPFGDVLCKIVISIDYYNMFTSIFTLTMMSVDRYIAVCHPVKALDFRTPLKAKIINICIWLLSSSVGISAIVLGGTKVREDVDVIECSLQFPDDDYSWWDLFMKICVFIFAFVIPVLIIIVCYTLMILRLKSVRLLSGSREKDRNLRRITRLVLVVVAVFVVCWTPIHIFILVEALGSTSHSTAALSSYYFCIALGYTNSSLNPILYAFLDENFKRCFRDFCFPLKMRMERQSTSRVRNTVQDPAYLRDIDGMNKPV

Vasopressin V2 receptor = Vasopressin V2 receptor (Homo sapiens, UniProt P30518)
Chain of Vasopressin V2 receptor (P30518 whole entry): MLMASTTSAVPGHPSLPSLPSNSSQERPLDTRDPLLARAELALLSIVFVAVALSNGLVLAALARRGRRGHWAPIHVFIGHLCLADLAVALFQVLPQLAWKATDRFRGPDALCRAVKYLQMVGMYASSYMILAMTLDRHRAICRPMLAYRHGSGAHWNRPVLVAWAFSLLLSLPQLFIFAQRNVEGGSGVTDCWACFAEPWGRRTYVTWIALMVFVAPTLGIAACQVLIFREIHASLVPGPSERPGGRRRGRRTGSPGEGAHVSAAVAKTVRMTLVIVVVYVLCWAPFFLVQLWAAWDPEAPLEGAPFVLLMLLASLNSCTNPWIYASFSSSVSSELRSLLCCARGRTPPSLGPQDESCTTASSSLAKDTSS

Melanocortin receptor 4 = Melanocortin receptor 4 (Homo sapiens, UniProt P32245)
Chain of Melanocortin receptor 4 (P32245 whole entry): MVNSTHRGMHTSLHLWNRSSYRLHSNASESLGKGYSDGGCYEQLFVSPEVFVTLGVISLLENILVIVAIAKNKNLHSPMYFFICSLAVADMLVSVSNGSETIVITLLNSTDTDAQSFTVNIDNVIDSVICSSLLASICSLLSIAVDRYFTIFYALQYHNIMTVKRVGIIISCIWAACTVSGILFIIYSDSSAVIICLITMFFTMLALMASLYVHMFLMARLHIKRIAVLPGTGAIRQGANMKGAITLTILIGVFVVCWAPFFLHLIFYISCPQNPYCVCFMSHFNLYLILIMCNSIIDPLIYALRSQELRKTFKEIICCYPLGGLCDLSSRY

[7] = target: Sodium-dependent noradrenaline transporter (Homo sapiens, UniProt P23975)
Chain of Sodium-dependent noradrenaline transporter (P23975 whole entry): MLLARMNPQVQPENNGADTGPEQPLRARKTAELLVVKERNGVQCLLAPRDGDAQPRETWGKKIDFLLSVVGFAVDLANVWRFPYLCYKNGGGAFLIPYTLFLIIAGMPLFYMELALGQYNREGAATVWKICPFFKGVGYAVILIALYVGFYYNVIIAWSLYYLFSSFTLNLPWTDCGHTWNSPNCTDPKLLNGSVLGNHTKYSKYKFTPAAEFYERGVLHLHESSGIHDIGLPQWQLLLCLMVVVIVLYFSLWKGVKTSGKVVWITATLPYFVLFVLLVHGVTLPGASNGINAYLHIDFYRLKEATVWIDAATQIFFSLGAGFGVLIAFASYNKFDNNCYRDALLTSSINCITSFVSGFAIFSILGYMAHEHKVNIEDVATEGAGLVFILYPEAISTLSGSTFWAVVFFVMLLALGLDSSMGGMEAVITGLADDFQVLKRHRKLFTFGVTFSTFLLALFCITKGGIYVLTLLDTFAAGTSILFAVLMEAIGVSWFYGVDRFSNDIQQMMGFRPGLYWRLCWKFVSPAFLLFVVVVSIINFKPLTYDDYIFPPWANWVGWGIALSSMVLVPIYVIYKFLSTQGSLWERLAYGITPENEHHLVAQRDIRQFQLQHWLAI

Mu-type opioid receptor [8] = target: T1, Mu-type opioid receptor; remark: listed apart in the source
[9] = target: cGMP-inhibited 3',5'-cyclic phosphodiesterase 3A (Homo sapiens, UniProt Q14432); type: functional
Chain of cGMP-inhibited 3',5'-cyclic phosphodiesterase 3A (Q14432 whole entry): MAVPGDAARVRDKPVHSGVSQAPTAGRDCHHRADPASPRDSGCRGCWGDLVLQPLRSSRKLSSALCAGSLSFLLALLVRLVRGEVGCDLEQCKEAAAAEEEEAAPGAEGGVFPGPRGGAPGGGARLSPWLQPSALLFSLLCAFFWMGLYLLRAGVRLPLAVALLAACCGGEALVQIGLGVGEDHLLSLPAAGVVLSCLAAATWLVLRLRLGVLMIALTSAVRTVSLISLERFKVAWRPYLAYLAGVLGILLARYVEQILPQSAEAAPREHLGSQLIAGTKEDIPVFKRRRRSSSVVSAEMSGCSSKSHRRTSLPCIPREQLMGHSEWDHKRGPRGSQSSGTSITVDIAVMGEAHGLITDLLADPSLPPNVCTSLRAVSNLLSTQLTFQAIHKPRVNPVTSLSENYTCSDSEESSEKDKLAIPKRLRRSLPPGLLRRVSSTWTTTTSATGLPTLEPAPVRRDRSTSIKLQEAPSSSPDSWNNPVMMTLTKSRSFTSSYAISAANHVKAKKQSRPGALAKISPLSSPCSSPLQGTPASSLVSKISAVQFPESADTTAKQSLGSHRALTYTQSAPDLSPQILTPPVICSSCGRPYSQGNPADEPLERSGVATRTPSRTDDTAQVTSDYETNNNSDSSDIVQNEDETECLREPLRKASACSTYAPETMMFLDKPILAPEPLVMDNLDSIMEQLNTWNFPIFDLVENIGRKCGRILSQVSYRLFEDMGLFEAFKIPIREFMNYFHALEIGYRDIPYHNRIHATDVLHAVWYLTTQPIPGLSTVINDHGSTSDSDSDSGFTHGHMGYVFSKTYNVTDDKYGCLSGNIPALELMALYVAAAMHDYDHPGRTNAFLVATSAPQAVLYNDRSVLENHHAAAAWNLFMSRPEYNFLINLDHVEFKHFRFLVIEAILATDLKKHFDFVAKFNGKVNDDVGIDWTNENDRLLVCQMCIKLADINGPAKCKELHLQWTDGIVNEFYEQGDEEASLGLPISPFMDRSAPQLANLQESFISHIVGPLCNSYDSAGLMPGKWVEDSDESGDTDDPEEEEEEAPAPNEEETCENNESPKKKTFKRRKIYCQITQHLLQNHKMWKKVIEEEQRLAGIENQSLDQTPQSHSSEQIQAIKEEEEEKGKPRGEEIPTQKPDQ

[10] = target: T5, 5-hydroxytryptamine receptor 1A (Homo sapiens, UniProt P08908)
T5 sequence (P08908 whole entry): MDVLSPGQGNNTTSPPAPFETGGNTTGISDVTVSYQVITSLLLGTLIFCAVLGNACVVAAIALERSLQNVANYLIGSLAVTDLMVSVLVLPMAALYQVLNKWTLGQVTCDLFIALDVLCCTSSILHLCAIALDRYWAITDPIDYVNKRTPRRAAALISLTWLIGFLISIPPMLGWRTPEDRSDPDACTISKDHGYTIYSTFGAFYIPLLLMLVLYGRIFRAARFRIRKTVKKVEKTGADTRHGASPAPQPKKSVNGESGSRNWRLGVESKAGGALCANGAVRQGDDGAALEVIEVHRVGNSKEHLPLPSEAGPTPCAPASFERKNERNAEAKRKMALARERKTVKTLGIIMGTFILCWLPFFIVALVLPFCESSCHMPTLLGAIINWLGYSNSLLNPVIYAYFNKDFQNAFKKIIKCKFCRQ

[11] = target: T6, Amine oxidase [flavin-containing] A (Homo sapiens, UniProt P21397); type: functional
T6 sequence (P21397 whole entry): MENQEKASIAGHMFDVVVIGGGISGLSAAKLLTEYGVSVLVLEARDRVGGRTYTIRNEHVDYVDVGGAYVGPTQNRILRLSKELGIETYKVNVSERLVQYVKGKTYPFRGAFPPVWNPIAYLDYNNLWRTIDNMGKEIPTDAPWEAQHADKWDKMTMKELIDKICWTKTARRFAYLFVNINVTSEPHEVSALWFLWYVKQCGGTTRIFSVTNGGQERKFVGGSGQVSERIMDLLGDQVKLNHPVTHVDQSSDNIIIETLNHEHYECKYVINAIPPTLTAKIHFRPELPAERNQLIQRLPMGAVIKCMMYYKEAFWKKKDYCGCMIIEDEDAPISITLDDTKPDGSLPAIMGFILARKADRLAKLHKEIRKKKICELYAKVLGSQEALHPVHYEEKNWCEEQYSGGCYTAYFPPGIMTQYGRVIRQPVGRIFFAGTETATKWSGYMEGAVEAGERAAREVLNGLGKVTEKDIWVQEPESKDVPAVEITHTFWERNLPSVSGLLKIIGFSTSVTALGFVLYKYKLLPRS

D(3) dopamine receptor = D(3) dopamine receptor (Homo sapiens, UniProt P35462)
Chain of D(3) dopamine receptor (P35462 whole entry): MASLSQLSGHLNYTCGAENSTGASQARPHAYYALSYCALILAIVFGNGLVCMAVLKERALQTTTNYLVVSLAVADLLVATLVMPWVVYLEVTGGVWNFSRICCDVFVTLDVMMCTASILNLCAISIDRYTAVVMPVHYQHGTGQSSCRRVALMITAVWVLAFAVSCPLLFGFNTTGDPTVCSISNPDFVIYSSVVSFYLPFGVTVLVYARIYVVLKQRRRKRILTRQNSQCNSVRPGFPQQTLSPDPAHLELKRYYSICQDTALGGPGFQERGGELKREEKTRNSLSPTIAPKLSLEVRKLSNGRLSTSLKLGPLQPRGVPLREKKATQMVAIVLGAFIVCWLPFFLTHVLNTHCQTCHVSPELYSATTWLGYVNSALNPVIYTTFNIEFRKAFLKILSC
Further: assay procedure not described here.

Chain of 5-hydroxytryptamine receptor 2A (P28223 whole entry): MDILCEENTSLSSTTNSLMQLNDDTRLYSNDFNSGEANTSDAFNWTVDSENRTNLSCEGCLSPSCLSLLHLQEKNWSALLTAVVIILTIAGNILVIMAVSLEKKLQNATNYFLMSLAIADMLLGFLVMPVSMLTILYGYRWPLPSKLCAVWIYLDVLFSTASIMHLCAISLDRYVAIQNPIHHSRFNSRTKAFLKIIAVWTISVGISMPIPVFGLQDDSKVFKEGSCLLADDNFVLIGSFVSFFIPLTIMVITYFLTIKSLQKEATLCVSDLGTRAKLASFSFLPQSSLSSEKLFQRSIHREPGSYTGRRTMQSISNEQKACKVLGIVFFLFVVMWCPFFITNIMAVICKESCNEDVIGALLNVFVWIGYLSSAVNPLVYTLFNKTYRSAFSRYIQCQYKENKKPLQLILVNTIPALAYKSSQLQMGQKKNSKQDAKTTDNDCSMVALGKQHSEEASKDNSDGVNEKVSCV
T1 sequence (P35372 whole entry): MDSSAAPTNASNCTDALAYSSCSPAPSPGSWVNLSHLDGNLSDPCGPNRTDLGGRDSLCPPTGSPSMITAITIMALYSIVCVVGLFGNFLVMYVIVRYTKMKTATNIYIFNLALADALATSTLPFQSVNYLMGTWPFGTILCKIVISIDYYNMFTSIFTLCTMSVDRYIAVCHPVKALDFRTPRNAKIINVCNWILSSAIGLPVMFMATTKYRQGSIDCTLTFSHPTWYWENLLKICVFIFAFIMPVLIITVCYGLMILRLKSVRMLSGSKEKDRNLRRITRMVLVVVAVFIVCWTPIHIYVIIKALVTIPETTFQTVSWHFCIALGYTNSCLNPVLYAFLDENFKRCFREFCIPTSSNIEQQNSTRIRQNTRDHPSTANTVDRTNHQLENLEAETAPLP

| SMILES | AC50 [1] | AC50 (Mu-type opioid receptor [2]) | AC50 [3] | AC50 [4] | AC50 [5] | AC50 [6] | AC50 (Vasopressin V2 receptor) | AC50 (Melanocortin receptor 4) | AC50 [7] | AC50 (Mu-type opioid receptor [8]) | AC50 [9] | AC50 [10] | AC50 [11] | AC50 (D(3) dopamine receptor) |
| --- | --- | --- | --- | --- | --- | --- | --- | --- | --- | --- | --- | --- | --- | --- |
| CC(C)(CO)c1cc2cc(NC(=O)C3(c4ccc5c(c4)OC(F)(F)O5)CC3)c(F)cc2n1C[C@@H](O)CO [TEZACAFTOR] | > 30 µM | > 30 µM | > 30 µM | > 10 µM | > 30 µM |  |  |  |  |  |  |  |  |  |
| CCN(CC)CCn1c(=O)c(Cc2ccc(OC)cc2)nc2ccccc21 [CAROVERINE] | > 30 µM |  | 21 µM | > 30 µM | > 30 µM | 5.34 µM | > 30 µM | > 30 µM |  |  |  |  |  |  |
| NCCCCCC(=O)O [AMINOCAPROIC ACID] |  | > 30 µM |  |  | > 10 µM | > 10 µM | > 10 µM | > 10 µM |  |  |  |  |  |  |
| CCN(CCO)CCCC(C)Nc1ccnc2cc(Cl)ccc12 (configuration not stated) [HYDROXYCHLOROQUINE] |  | > 30 µM |  |  | > 10 µM | > 10 µM | > 10 µM | > 10 µM |  |  |  |  |  |  |
| CC(C)C[C@H](NC(=O)[C@H](Cc1ccccc1)NC(=O)c1cnccn1)B(O)O [BORTEZOMIB] | > 30 µM |  | > 30 µM |  | > 30 µM | > 30 µM | > 30 µM | > 30 µM |  |  |  |  |  |  |
| CN1CC2c3ccccc3Oc3ccc(Cl)cc3C2C1 (configuration not stated) [ASENAPINE] | > 30 µM | > 30 µM |  | 0.0014 µM | > 30 µM |  |  |  |  |  |  |  |  |  |
| COc1cc2c(cc1OC)C1CC(=O)C(CC(C)C)CN1CC2 (configuration not stated) [TETRABENAZINE] | > 30 µM | > 30 µM | > 30 µM | > 30 µM | > 30 µM |  |  |  |  |  |  |  |  |  |
| O=C(O)[C@H]1/C(=C/CO)O[C@@H]2CC(=O)N21 [CLAVULANIC ACID] | > 30 µM | > 30 µM | > 30 µM | > 30 µM | > 30 µM |  |  |  |  |  |  |  |  |  |
| C[C@H](CCC(=O)O)[C@H]1CC[C@H]2[C@@H]3[C@H](O)C[C@@H]4C[C@H](O)CC[C@]4(C)[C@H]3CC[C@]12C [CHENODIOL] | > 30 µM | > 30 µM | > 30 µM | 19 µM | 27 µM |  |  |  |  |  |  |  |  |  |
| CC(C)NCC(O)COc1ccc(CC(N)=O)cc1 (configuration not stated) [ATENOLOL] |  |  |  | > 30 µM |  | > 30 µM | > 30 µM | > 30 µM |  |  |  |  |  |  |
| c1cnc2cc3c(cc2n1)[C@@H]1CNC[C@H]3C1 [VARENICLINE] | > 30 µM | > 30 µM | > 30 µM | > 30 µM | > 30 µM |  |  |  |  |  |  |  |  |  |
| C[C@H](Cn1cnc2c(N)ncnc21)OCP(=O)(O)O [TENOFOVIR ANHYDROUS] | > 30 µM |  | > 30 µM | > 30 µM | > 30 µM | > 30 µM | > 30 µM | > 30 µM |  |  |  |  |  |  |
| C[C@H](Nc1ncnc2[nH]cnc12)c1cc2cccc(Cl)c2c(=O)n1-c1ccccc1 [DUVELISIB] | > 30 µM | > 30 µM | > 30 µM | > 30 µM | > 30 µM |  |  |  | > 30 µM | > 30 µM | 16.8 µM | > 30 µM | > 30 µM | > 30 µM |
| CN(C)CCCC1(c2ccc(F)cc2)OCc2cc(C#N)ccc21 (configuration not stated) [CITALOPRAM] |  |  |  |  |  | > 10 µM | > 30 µM | > 30 µM |  |  | > 30 µM |  | > 30 µM |  |
| C[C@H](CS)C(=O)N1CCC[C@H]1C(=O)O [CAPTOPRIL] |  | > 30 µM |  | > 30 µM | > 10 µM | > 10 µM | > 30 µM | > 30 µM |  |  |  |  |  |  |
| Nc1c2c(nc3ccccc13)CCCC2O (configuration not stated) [VELNACRINE] | > 30 µM | > 30 µM | > 30 µM | > 30 µM | > 30 µM |  |  |  |  |  |  |  |  |  |
| CCC[C@@]1(CCc2ccccc2)CC(O)=C([C@H](CC)c2cccc(NS(=O)(=O)c3ccc(C(F)(F)F)cn3)c2)C(=O)O1 | > 30 µM | > 30 µM | > 30 µM | 4.7 µM | 6.3 µM |  |  |  |  |  |  |  |  |  |
| CCC1(c2ccccc2)C(=O)NCNC1=O [PRIMIDONE] |  | > 30 µM |  |  | > 10 µM | > 10 µM | > 10 µM | > 10 µM |  |  |  |  |  |  |
| CO[C@@H]1[C@@H](OC(N)=O)[C@@H](O)[C@H](Oc2ccc3c(O)c(NC(=O)c4ccc(O)c(CC=C(C)C)c4)c(=O)oc3c2C)OC1(C)C [NOVOBIOCIN] | > 30 µM | > 30 µM | > 30 µM | > 30 µM | > 30 µM |  |  |  |  |  |  |  |  |  |
| CCOCC(O)COc1ccc(NC(=O)CC[S+](C)C)cc1 (configuration not stated) | > 30 µM | > 30 µM | > 30 µM | > 30 µM | > 30 µM |  |  |  |  |  |  |  |  |  |
| C[C@@H](O)[C@H]1C(=O)N2C(C(=O)O)=C(SCCN=CN)C[C@H]12 [IMIPENEM ANHYDROUS] | > 300 µM | > 300 µM | > 300 µM | > 300 µM | > 300 µM |  |  |  |  |  |  |  |  |  |
| O=C(Cc1cccs1)N[C@@H]1C(=O)N2C(C(=O)[O-])=C(C[n+]3ccccc3)CS[C@H]12 [CEPHALORIDINE] | > 30 µM |  | > 30 µM | > 30 µM | > 30 µM | > 30 µM |  |  | > 30 µM | > 30 µM | > 30 µM | > 30 µM | > 30 µM | > 30 µM |
| O=C1[C@@H]2[C@H]3CC[C@H](C3)[C@@H]2C(=O)N1C[C@@H]1CCCC[C@H]1CN1CCN(c2nsc3ccccc23)CC1 [LURASIDONE] |  | > 30 µM |  |  |  |  |  |  | 24.1 µM | > 10 µM | > 30 µM |  | > 30 µM | 0.0042 µM |
| Cn1cnc2c(F)c(Nc3ccc(Br)cc3F)c(C(=O)NOCCO)cc21 [BINIMETINIB] | > 30 µM | > 30 µM | > 30 µM | > 30 µM | > 30 µM |  |  |  |  |  |  |  |  |  |
